Read-outs that look alike come from different tables or passages of the source.
Target: T1, α4·IgG heavy chain-β1·IgG heavy chain chimeric protein heterodimer complex (integrin α4β1; sequence Nos. 1 and 2) (Homo sapiens, UniProt P05556+P13612)
T1 construct: made in house; culture supernatant used in the assay
Assay: Inhibition of the binding of the α4·IgG heavy chain-β1·IgG heavy chain chimeric protein heterodimer complex to solid-phase CS-1-IgG (peptide fragment of fibronectin), ELISA-type detection at 490 nm
Conditions: for inhibition at 100 µg/mL: compound concentration 100 μg/ml; for inhibition at 100 µg/mL / inhibition at 50 µg/mL: read-out: Inhibition rate (%); for IC50: binding assay system of Example 9: binding to CS-1-IgG, cyclic phage-library peptides, read-out: Inhibitory activity IC50
Method: At first, according to the said report (Humphries, M. J. et al., J. Biol. Chem., 262, 6886-6892 (1987)), the peptide fragment of sequence No. 3 (CS-1 peptide) was bound to rabbit IgG (Sigma), to prepare CS-1-IgG. The CS-1-IgG was diluted by PBS(-), and put in a 96-well immunoplate (NUNC) by 100 µl/well, and allowed to stand at 4°C for 16 hours, to be formed as a solid phase on the plate.
After completion of standing, the surface of the plate was washed with PBS(-) twice and treated with denatured 1% BSA(heat-natured at 80°C for 10 minutes)-PBS solution ( 300 µl/well) at 4°C for 3 hours to block the nonspecific reaction. Then, the solid phase CS-1-IgG and the CHO culture supernatant (100 µl) containing α4·IgG heavy chain-β1·IgG heavy chain chimeric protein heterodimer complex were reacted with each other at 30°C for 3 hours. The non-bound α4·IgG heavy chain-β1·IgG heavy chain chimeric protein heterodimer complex was removed by washing with 0.1% BSA-containing TBS buffer (150 mM NaCl, 25 mM Tris-HCl, 1 mM MnCl2, pH 7.4) twice, and the bound α4·IgG heavy chain-β1·IgG heavy chain chimeric protein heterodimer complex was detected by biotin labeled anti-human IgG antibody (Vector) as the primary antibody and avidin labeled horseradish peroxidase (Sigma) as the secondary antibody. The surface of the plate was washed with the TBS buffer. Orthophenylenediamine was added as a substrate to it for color development, and the absorbance at 490 nm were measured.
The all peptides were synthesized by a peptide synthesizer. The peptide and 100 µl of CHO cultured supernatant solution containing αα4·IgG heavy chain-β1·IgG heavy chain chimeric protein heterodimer complex were mixed at room temperature for 20 minutes, and the binding to CS-1-IgG was determined according to the method in Example 9.
At first, α4·IgG heavy chain-β1·IgG heavy chain chimeric protein heterodimer complex purified in Example 6, or human IgG was prepared at a proper concentration by PBS (-) and was coated on a plastic plate at 4°C for 16 hours, being formed as a solid phase on a plastic plate. Then, according to a report (Cott, J. K. and Smoth, G. P., Science, 249, 386-390 (1990)), a phage peptide library in which a random six amino acid residues were cyclyzed by the disulfide bond of cysteine at both the ends was prepared and suspended in 0.1% BSA-containing TBS buffer. The phage peptide library was reacted with human IgG at 30°C for 3 hours, to absorb phage peptides capable of being bound to IgG. Then, the non-absorbed phases were reacted with α4·IgG heavy chain-β1·IgG heavy chain chimeric protein heterodimer complex at 30°C for 3 hours, and the reaction mixture was washed with 0.1% BSA-containing TBS buffer twice to remove the phage peptides incapable of being bound to the heterodimer complex. Only the phage peptides capable of being bound were collected after elution with 0.1M glycine-hydrochloric acid (pH 2.2). After collection, the phage was amplified and the above mentioned binding operation was repeated further twice. The only the phage peptides capable of being bound to the heterodimer complex were selectively concentrated. In the final elution operation, phage peptides capable of being bound to the heterodimer complex were eluted using 10 mM EDTA and 0.1M glycine-hydrochloric acid in two steps, and the amino acid sequences of the respective peptides were analyzed. Furthermore, they were examined using the binding assay system of Example 9, and the IC50 values of the four peptide sequences showing binding inhibitory activity are shown in Table 1.
Reagents and reported compounds were picked up at random, adjusted to a final concentration of 50 or 100 µg/ml, and added to the binding determination system in Example 9. Compounds showing inhibitory activity were obtained. […]

[1] = binding determination system of Example 9 (CS-1-IgG)

T1 sequence (P13612 35-977 limits assumed, change not shown): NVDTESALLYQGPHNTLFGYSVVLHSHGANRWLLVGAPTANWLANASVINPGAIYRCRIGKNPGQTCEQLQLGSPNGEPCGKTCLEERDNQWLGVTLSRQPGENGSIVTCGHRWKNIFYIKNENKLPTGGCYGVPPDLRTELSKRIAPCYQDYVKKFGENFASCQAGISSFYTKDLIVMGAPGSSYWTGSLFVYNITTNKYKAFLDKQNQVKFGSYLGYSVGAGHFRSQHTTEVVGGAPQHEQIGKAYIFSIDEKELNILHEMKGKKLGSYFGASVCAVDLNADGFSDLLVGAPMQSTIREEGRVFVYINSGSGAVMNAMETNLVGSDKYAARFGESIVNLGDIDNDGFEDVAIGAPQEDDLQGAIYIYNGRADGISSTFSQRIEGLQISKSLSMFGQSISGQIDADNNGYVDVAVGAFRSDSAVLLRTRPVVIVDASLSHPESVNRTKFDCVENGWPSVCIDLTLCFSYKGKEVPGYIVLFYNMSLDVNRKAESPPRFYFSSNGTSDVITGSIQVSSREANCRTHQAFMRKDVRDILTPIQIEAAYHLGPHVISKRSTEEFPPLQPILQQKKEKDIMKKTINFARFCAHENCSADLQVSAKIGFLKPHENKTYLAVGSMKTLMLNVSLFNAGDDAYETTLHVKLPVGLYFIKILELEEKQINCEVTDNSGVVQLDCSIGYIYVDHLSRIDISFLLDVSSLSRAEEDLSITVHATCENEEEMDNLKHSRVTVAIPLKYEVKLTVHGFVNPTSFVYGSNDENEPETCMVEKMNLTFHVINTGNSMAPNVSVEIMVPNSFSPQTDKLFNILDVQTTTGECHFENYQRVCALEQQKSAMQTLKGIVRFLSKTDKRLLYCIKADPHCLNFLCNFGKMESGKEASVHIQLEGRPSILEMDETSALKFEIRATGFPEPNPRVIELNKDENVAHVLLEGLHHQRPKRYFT
T1 sequence (P05556 21-728 limits assumed, change not shown): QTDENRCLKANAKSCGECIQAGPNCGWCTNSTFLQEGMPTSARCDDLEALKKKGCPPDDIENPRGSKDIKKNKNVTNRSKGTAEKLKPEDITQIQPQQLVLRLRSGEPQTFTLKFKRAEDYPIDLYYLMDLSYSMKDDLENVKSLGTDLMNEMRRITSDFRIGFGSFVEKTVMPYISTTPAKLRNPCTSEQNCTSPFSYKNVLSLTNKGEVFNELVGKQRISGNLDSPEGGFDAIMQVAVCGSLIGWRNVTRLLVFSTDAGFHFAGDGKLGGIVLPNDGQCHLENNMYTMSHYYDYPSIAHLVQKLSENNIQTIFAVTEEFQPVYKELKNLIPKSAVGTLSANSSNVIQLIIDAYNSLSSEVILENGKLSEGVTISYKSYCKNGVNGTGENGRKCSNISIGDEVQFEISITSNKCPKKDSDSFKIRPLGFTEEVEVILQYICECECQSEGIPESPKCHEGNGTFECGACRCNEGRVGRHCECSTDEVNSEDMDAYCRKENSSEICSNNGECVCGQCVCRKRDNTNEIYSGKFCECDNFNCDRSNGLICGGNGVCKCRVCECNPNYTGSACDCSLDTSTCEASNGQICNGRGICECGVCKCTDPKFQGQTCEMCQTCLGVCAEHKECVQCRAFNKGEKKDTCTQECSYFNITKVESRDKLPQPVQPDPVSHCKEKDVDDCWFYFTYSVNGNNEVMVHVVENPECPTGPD
T1 sequence (P01857 99-330 partner limits assumed): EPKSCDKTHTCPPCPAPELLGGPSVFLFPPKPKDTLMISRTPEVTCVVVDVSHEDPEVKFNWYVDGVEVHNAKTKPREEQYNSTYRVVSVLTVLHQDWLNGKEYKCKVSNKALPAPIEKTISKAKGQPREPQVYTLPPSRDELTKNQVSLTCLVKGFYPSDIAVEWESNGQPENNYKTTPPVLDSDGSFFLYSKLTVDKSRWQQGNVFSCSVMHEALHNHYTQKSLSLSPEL

## O=C(O)CC12CC3CC(CC(C3)C1)C2 [1-Adamantaneacetic acid]
[1]
  inhibition at 100 µg/mL: 65%

## CC(C)(S)[C@@H](N)C(=O)O [D-Penicillamine]
  inhibition at 50 µg/mL: 51%

## C#C[C@]1(O)CC[C@H]2[C@@H]3CCC4=C(CCC(=O)C4)[C@H]3CC[C@@]21C [Norethynodrel]
Compound concentration 50 μg/ml, binding determination system of Example 9 (CS-1-IgG)
  inhibition at 50 µg/mL: 28%

## O=C(O)CCCc1ccc2ccccc2c1 [γ-2-Naphtyl butyric acid, γ-2-Naphthyl butyric acid]
[1]
  inhibition at 100 µg/mL: 37%

## Cys* Gly Leu Gln Ala Leu Pro Cys* (GLQALPC; printed: Gly Leu Gln Ala Leu Pro Cys) [Sequence No. 30]
  IC50: 10000 nM

## Cys* Ile Pro Glu Leu Ile Val Cys* (IPELIVC; printed: Ile Pro Glu Leu Ile Val Cys) [Sequence No. 24]
  IC50: 1200 nM

## Cys* Leu Arg Tyr Ser Val Pro Cys* (LRYSVPC; printed: Leu Arg Tyr Ser Val Pro Cys) [Sequence No. 28]
  IC50: 1800 nM

## Cys* Met Arg Tyr Thr Ser Ala Cys* (MRYTSAC; printed: Met Arg Tyr Thr Ser Ala Cys) [Sequence No. 25]
  IC50: 2300 nM
